# Experimental data: patent US20190241822A1, “COMPOSITION FOR REMOVING IRON SULFIDE” (KURARAY CO., LTD., priority 2016, published 2019)
# Where two headings read alike, the source gives them in different places.
# How the values were obtained:
# Rat = conditions: cited from earlier work
# [1] = Removal test of iron sulfide; conditions: for time elapsed until iron sulfide was dissolved and the reaction solution became colorless transparent: 1.5 mmol aldehyde, 0.5 mmol iron sulfide in 500 mL water, 50° C., 500 rpm
# [2] = type: physicochemical; conditions: 50° C., nitrogen atmosphere; for content ratio, 2 hours elapsed / content ratio, 4 hours elapsed / content ratio, 6 hours elapsed / content ratio, 10 hours elapsed: GC with internal standard; for content ratio, 0 hour: content immediately after temperature rise defined as 100%
# Experimental: 50 mL of each of SAL and acrolein was charged in three-necked flask, and the contents were subjected to temperature rise to 50° C. in a nitrogen atmosphere. On the occasion when the content of each of SAL and acrolein immediately after the temperature rise was defined as 100%, a change of the content ratio was observed according to the calibration curve method by means of gas chromatography with an internal standard.
# Analysis instrument: GC-14A (available from Shimadzu Corporation) Detector: FID (hydrogen flame ionization detector)
# Column used: DB-1701 (length: 50 m, film thickness: 1 pn, inner diameter: 0.32 mm) (available from Agilent Technologies)
# Analysis conditions: Injection temperature: 250° C., detection temperature: 250° C.
# Temperature rise conditions: 70° C.→(temperature rise at 5° C./min)→250° C.
# Internal standard substance: Diglyme (diethylene glycol dimethyl ether)
# [3] = upper respiratory tract; cited from earlier work
# [4] = type: physicochemical; conditions: pH 1.7
# Experimental: Each of SAL and acrolein was dissolved in 0.5 mol/L of phosphoric acid buffer solutions having a pH different from each other, thereby preparing 0.1 wt % solutions. 50 mL of each of the solutions was charged in a sample vial in a nitrogen atmosphere and stored at 23±2° C. On the occasion when the content of each of SAL and acrolein at the time of preparation was defined as 100%, a change of the content ratio was observed according to the absolute calibration curve by means of high-performance liquid chromatography analysis.
# pH 1.7: 4.9 g of 75% phosphoric acid and 7.8 g of sodium dihydrogen phosphate dihydrate were dissolved in 200 mL of distilled water.
# pH 6.2: 7.8 g of sodium dihydrogen phosphate dihydrate and 7.1 g of disodium hydrogen phosphate were dissolved in 200 mL of distilled water.
# pH 8.1: 0.3 g of sodium dihydrogen phosphate dihydrate and 13.9 g of disodium hydrogen phosphate were dissolved in 200 mL of distilled water.
# Analysis instrument: Prominence System (available from Shimadzu Corporation)
# Column used: Cadenza CD-C18 (length: […], inner diameter: 4.6 mm)
# Developing solution: H2O/MeOH=45/55 (volume ratio), H3PO4=1 mol/L
SMILES,"Acute toxicity, Rat LD50 (Rat; Rat)",time elapsed until iron sulfide was dissolved and the reaction solution became colorless transparent [1],"content ratio, 2 hours elapsed [2]","content ratio, 4 hours elapsed [2]","content ratio, 6 hours elapsed [2]","content ratio, 10 hours elapsed [2]","content ratio, 0 hour [2]",ratio lost after elapsing 10 hours ([2]; acrolein contained hydroquinone as a stabilizer),"Acute toxicity, Rat LD50 (Rat; rat, in vivo)",iron sulfide removal ability ([1]; compared with acrolein),GHS Classification (under Permissible Exposure Limit) [3],pH stability as compared with acrolein [4]
"C=CC=O [Acrolein, acrolein, reference compound]",Rat LD50: 42 mg/kg,4 h,99.5%,98.3%,98.1%,96.6%,100.0%,3.4%,–,–,–,–
"CC(C)=CCCC(C)=CC=O [Citral, 3,7-dimethyl-2,6-octadienal]",–,7 h,–,–,–,–,–,–,–,–,–,–
"CC(C)=CC=O [SAL, 3-methyl-2-butenal]",–,4 h,100.0%,100.0%,100.0%,99.9%,100.0%,–,Rat LD50: 690 mg/kg,equivalent to acrolein,GHS Classification; Section 1 (upper,extremely high in the pH stability as compared with acrolein
